≈ marks a conversion by molar mass, not a printed value. Calls of active or inactive are those of the source. The calls are words filed in the database; no cut-off is given here.
Assays:
HeLa [1] = test: Cytotoxicity against Homo sapiens (human) HeLa cells after 48 hr by MTT assay; format: functional, cell-based
HeLa [2] = test: Cytotoxicity against Homo sapiens (human) HeLa cells assessed as cell death at 25 uM after 48 hr by MTT assay; format: functional
Staphylococcus aureus = test: Antibacterial activity against Staphylococcus aureus after 16 to 18 hr by serial dilution method; format: functional
HeLa [3] = test: Cytotoxicity against Homo sapiens (human) HeLa cells assessed as cell death at 50 uM after 48 hr by MTT assay; format: functional
Candida albicans = test: Antifungal activity against Candida albicans after 16 to 18 hr by serial dilution method; format: functional
Bacillus cereus = test: Antibacterial activity against Bacillus cereus after 16 to 18 hr by serial dilution method; format: functional
Pseudomonas aeruginosa = test: Antibacterial activity against Pseudomonas aeruginosa after 16 to 18 hr by serial dilution method; format: functional
HeLa [4] = test: Cytotoxicity against Homo sapiens (human) HeLa cells assessed as cell death at 100 uM after 48 hr by MTT assay; format: functional
HeLa [5] = test: Cytotoxicity against Homo sapiens (human) HeLa cells assessed as cell death at 12.5 uM after 48 hr by MTT assay; format: functional
Escherichia coli = test: Antibacterial activity against Escherichia coli after 16 to 18 hr by serial dilution method; format: functional
HeLa [6] = test: Cytotoxicity against Homo sapiens (human) HeLa cells assessed as cell death at 2.5 uM after 48 hr by MTT assay; format: functional

`CSc1ccc(/C=N/n2c(Cc3ccc(S(C)(=O)=O)cc3)n[nH]c2=S)cc1` was tested, and the EC50 (HeLa [1]) was 50 µM, the Activity (HeLa [2]) was 32.66% and the MIC (Staphylococcus aureus) was 3.12 µg/mL (≈ 7.47 µM). The Activity (HeLa [3]) was 57.5%, the MIC (Candida albicans) was 3.12 µg/mL (≈ 7.47 µM) and the MIC (Bacillus cereus) was 3.12 µg/mL (≈ 7.47 µM). It also gave an MIC (Pseudomonas aeruginosa) of 3.12 µg/mL (≈ 7.47 µM), an Activity (HeLa [4]) of 71.86% and an Activity (HeLa [5]) of 27.94%. For the same compound, the MIC (Escherichia coli) was 3.12 µg/mL (≈ 7.47 µM).

`CS(=O)(=O)c1ccc(Cc2n[nH]c(=S)n2/N=C/c2cccs2)cc1` gave an EC50 (HeLa [1]) of 100 µM, an Activity (HeLa [2]) of 33.33% and an MIC (Staphylococcus aureus) of 12.5 µg/mL (≈ 33 µM). It also gave an Activity (HeLa [3]) of 48.59%, an MIC (Candida albicans) of 3.12 µg/mL (≈ 8.26 µM) and an MIC (Bacillus cereus) of 12.5 µg/mL (≈ 33 µM). For the same compound, the MIC (Pseudomonas aeruginosa) was 6.25 µg/mL (≈ 16.5 µM), the Activity (HeLa [4]) was 61.09% and the Activity (HeLa [5]) was 28.69%. The MIC (Escherichia coli) was 3.12 µg/mL (≈ 8.26 µM).

For `CS(=O)(=O)c1ccc(Cc2n[nH]c(=S)n2/N=C/c2ccccc2Cl)cc1`, the Activity (HeLa [2]) was 36.26%, the MIC (Staphylococcus aureus) was 12.5 µg/mL (≈ 30.7 µM) and the Activity (HeLa [3]) was 42.65%. For the same compound, the MIC (Candida albicans) was 3.12 µg/mL (≈ 7.68 µM), the MIC (Bacillus cereus) was 6.25 µg/mL (≈ 15.4 µM) and the MIC (Pseudomonas aeruginosa) was 3.12 µg/mL (≈ 7.68 µM). The Activity (HeLa [4]) was 76.53%, the Activity (HeLa [5]) was 34.65% and the MIC (Escherichia coli) was 6.25 µg/mL (≈ 15.4 µM).

`CS(=O)(=O)c1ccc(Cc2n[nH]c(=S)n2/N=C/c2ccc(Cl)cc2)cc1` gave an EC50 (HeLa [1]) of 50 µM, an Activity (HeLa [2]) of 47.51% and an MIC (Staphylococcus aureus) of 6.25 µg/mL (≈ 15.4 µM). It also gave an Activity (HeLa [3]) of 53.99%, an MIC (Candida albicans) of 1.56 µg/mL (≈ 3.84 µM) and an MIC (Bacillus cereus) of 6.25 µg/mL (≈ 15.4 µM). For the same compound, the MIC (Pseudomonas aeruginosa) was 6.25 µg/mL (≈ 15.4 µM), the Activity (HeLa [4]) was 57.04% and the Activity (HeLa [5]) was 44.73%. The MIC (Escherichia coli) was 12.5 µg/mL (≈ 30.7 µM).

`COc1ccc2cc(/C=N/n3c(Cc4ccc(S(C)(=O)=O)cc4)n[nH]c3=S)ccc2c1` gave an EC50 (HeLa [1]) of 50 µM, an Activity (HeLa [2]) of 42.01% and an MIC (Staphylococcus aureus) of 6.25 µg/mL (≈ 13.8 µM). The Activity (HeLa [3]) was 54.13%, the MIC (Candida albicans) was 6.25 µg/mL (≈ 13.8 µM) and the MIC (Bacillus cereus) was 6.25 µg/mL (≈ 13.8 µM). It also gave an MIC (Pseudomonas aeruginosa) of 6.25 µg/mL (≈ 13.8 µM), an Activity (HeLa [4]) of 64.6% and an Activity (HeLa [5]) of 43.71%. The MIC (Escherichia coli) was 6.25 µg/mL (≈ 13.8 µM).

With `CS(=O)(=O)c1ccc(Cc2n[nH]c(=S)n2/N=C/c2ccc(F)cc2)cc1` the EC50 (HeLa [1]) was 100 µM, the Activity (HeLa [2]) was “inactive” and the MIC (Staphylococcus aureus) was 12.5 µg/mL (≈ 32 µM). The Activity (HeLa [3]) was 26.25%, the MIC (Candida albicans) was 3.12 µg/mL (≈ 8 µM) and the MIC (Bacillus cereus) was 6.25 µg/mL (≈ 16 µM). It also gave an MIC (Pseudomonas aeruginosa) of 6.25 µg/mL (≈ 16 µM), an Activity (HeLa [4]) of 57.79% and an Activity (HeLa [5]) of 2.8%. It also gave an MIC (Escherichia coli) of 6.25 µg/mL (≈ 16 µM).

With `CS(=O)(=O)c1ccc(Cc2n[nH]c(=S)n2/N=C/c2c(F)cccc2Cl)cc1` the EC50 (HeLa [1]) was 25 µM, the Activity (HeLa [2]) was 55.32% and the MIC (Staphylococcus aureus) was 6.25 µg/mL (≈ 14.7 µM). The Activity (HeLa [3]) was 70.55%, the MIC (Candida albicans) was 3.12 µg/mL (≈ 7.35 µM) and the MIC (Bacillus cereus) was 3.12 µg/mL (≈ 7.35 µM). It also gave an MIC (Pseudomonas aeruginosa) of 3.12 µg/mL (≈ 7.35 µM), an Activity (HeLa [4]) of 77.28% and an Activity (HeLa [5]) of 49.84%. The MIC (Escherichia coli) was 6.25 µg/mL (≈ 14.7 µM).

Compound `COc1cccc2c1C(=O)c1c(O)c3c(c(O)c1C2=O)C[C@@](O)(C(=O)CO)C[C@@H]3O[C@H]1C[C@H](N)[C@H](O)[C@H](C)O1` [DOXORUBICIN] has an EC50 (HeLa [1]) of 2.5 µM and an Activity (HeLa [6]) of 78.2%.

Work on `OC(Cn1cncn1)(Cn1cncn1)c1ccc(F)cc1F` [FLUCONAZOLE] yielded an MIC (Candida albicans) of 0.78 µg/mL (≈ 2.55 µM).

`CS(=O)(=O)c1ccc(Cc2n[nH]c(=S)n2/N=C/c2cccnc2)cc1` showed an EC50 (HeLa [1]) greater than 100 µM, an Activity (HeLa [2]) of 19.36% and an MIC (Staphylococcus aureus) of 6.25 µg/mL (≈ 16.7 µM). It also gave an Activity (HeLa [3]) of 14%, an MIC (Candida albicans) of 6.25 µg/mL (≈ 16.7 µM) and an MIC (Bacillus cereus) of 12.5 µg/mL (≈ 33.5 µM). The MIC (Pseudomonas aeruginosa) was 6.25 µg/mL (≈ 16.7 µM), the Activity (HeLa [4]) was 45.1% and the Activity (HeLa [5]) was 16.89%. It also gave an MIC (Escherichia coli) of 6.25 µg/mL (≈ 16.7 µM).

`CS(=O)(=O)c1ccc(Cc2n[nH]c(=S)n2/N=C/c2ccccc2F)cc1` showed an EC50 (HeLa [1]) greater than 100 µM, an Activity (HeLa [2]) of 14.03% and an MIC (Staphylococcus aureus) of 6.25 µg/mL (≈ 16 µM). It also gave an Activity (HeLa [3]) of 21.9%, an MIC (Candida albicans) of 3.12 µg/mL (≈ 8 µM) and an MIC (Bacillus cereus) of 3.12 µg/mL (≈ 8 µM). The MIC (Pseudomonas aeruginosa) was 6.25 µg/mL (≈ 16 µM), the Activity (HeLa [4]) was 28.08% and the Activity (HeLa [5]) was 16.48%. The MIC (Escherichia coli) was 3.12 µg/mL (≈ 8 µM).

`CC1(C)S[C@@H]2[C@H](NC(=O)Cc3ccccc3)C(=O)N2[C@H]1C(=O)O` [PENICILLIN G] showed an MIC (Staphylococcus aureus) of 0.097 µg/mL (≈ 0.29 µM), an MIC (Bacillus cereus) of 0.097 µg/mL (≈ 0.29 µM) and an MIC (Pseudomonas aeruginosa) of 0.097 µg/mL (≈ 0.29 µM). For the same compound, the MIC (Escherichia coli) was 0.097 µg/mL (≈ 0.29 µM).

For `CS(=O)(=O)c1ccc(Cc2n[nH]c(=S)n2/N=C/c2ccc(-c3ccccc3)cc2)cc1`, the EC50 (HeLa [1]) was 50 µM, the Activity (HeLa [2]) was 37.32% and the MIC (Staphylococcus aureus) was 6.25 µg/mL (≈ 13.9 µM). For the same compound, the Activity (HeLa [3]) was 61.56%, the MIC (Candida albicans) was 6.25 µg/mL (≈ 13.9 µM) and the MIC (Bacillus cereus) was 6.25 µg/mL (≈ 13.9 µM). It also gave an MIC (Pseudomonas aeruginosa) of 6.25 µg/mL (≈ 13.9 µM), an Activity (HeLa [4]) of 69.54% and an Activity (HeLa [5]) of 30.44%. The MIC (Escherichia coli) was 3.12 µg/mL (≈ 6.97 µM).

Source: ChEMBL document CHEMBL3045095, “Synthesis and biological evaluation of some Schiff bases of 4-amino-5-(4-methylsulfonyl)benzyl-2,4-dihydro-3H-[1,2,4]-triazole-3-thione” (Med Chem Res, 2013)
